Tests used:
GLP-1R = target: T1, GLP-1R (Homo sapiens, UniProt P43220); test: EndoC cAMP Accumulation Assay; format: cell-based; details: EndoC-βH1 human pancreatic β cell line; HTRF cAMP accumulation
T1 construct: host or cells: EndoC-βH1 human pancreatic beta cell line
Excerpt: EndoC cAMP Accumulation Assay
A HTRF cAMP assay (cAMP Gs dynamic kit; CisoBio Cat #62AM4PEJ) was used to identify agonists of GLP-1R in a pancreatic insulinoma cell line (EndoC-⊕H1). […] EndoC-PHlcells have detectable GLP-1R messenger ribonucleic acid (mRNA) as detected by quantitative polymerase chain reaction (qPCR). […] The EndoC-PH1 cell line is a valid model of human beta cells and applicable for screenings to identify novel drug target candidates (Mol. Metab., 2018, 8, 144-157). CisBio HTRF cAMP kits are based on a competitive immunoassay using cryptate-labelled anti-cAMP antibody and d2-labeled cAMP. The detection kit is intended for the direct quantitative determination of cAMP. The specific signal (i.e. energy transfer) is inversely proportional to the concentration of cAMP in the standard or sample. Test compounds (10 mM in DMSO) were diluted into assay buffer (HBSS (Sigma #H8264) supplemented with 25 mM HEPES (Gibco #15630, pH 7.4), 0.1% BSA (Sigma #A3059) and 0.5 mM IBMX (Sigma #I7018) included fresh on the day of the assay) into 96 well U-bottom plates (Greiner #650201). Diluted compounds were transferred to ECHO source polypropylene plates (Labcyte #P-05525) and dose response curves were dispensed acoustically using ECHO 550 into black shallow-well u-bottom 384-well HTRF Assay Plates (Corning 4514).
Cryovials of EndoC-H1 (supplied at 1×10e^7 cells/vial) were used directly for screening. The cryovials and were removed from N2(l) and thawed rapidly in a 37° C. water bath. The cells were resuspended in assay buffer and centrifuged at 300 g for 5 min. Cells were resuspended in assay buffer at the appropriate concentration, typically at 12e5 cells per mL (3000 cells per well, dependent on cell batch) and 2.5 μL diluted cells were added to all wells of destination plate by Multidrop combi reagent dispenser (Thermofisher). The plates were incubated at rt for 30 min. The assay was stopped by adding 2.5 μL anti-cAMP cryptate solution to all wells and 2.5 μL cAMP-d2 solution (both diluted 1:20 in lysis buffer) to columns 1-22 by Combi drop. A volume of 2.5 μL cAMP-d2 solution was added to wells E23 to P24 and 2.5 μL lysis buffer added to wells A23 to D24 by multichannel pipette. The plates were incubated at rt for 1 h and read on an Envision plate reader using excitation wavelength of 320 mn and emission of 590 nm and 660 nm.
Raw data from Envision is converted to % DeltaF according to the manufacturer's instructions. Dose response curves are analysed via 4-Parameter Logistical Analysis and assay plate Z′ values obtained. Samples are graphed as percentage (%) activation plots compared to GIP (1-42, Bachem H-5645) with assay window defined by negative control as basal cell cAMP levels and positive control are defined by maximum GIP (82.5 nM) signal. GLP-1 (7-36 amide, Bachem H-6795) dose response curve was included on all plates.

human GLP-1R receptor = target: T2, human GLP-1R receptor (Homo sapiens, UniProt P43220, L260F); test: CHOK1 GLP-1R cAMP Assay; format: cell-based; details: CHO-K1 cell line stably expressing human GLP-1R (Leu260Phe variant); HTRF cAMP; agonist activity
T2 construct: expressed in transfected cells; host or cells: CHO-K1 (ATCC CCL-61)
Method: A cell line stably expressing the human GLP-1R receptor (NM_002062.5, including the naturally-occurring variant Leu260Phe) in a CHO-K1 (ATCC® CCL-61™) was used for assay.
GLP-1 receptor mediated agonist activity was determined in a cell-based assay measuring cyclic adenosine monophosphate (cAMP) levels in cells using Homogeneous Time-Resolved Fluorescence (HTRF) cAMP detection kit (CisBio catalog #62AM4PEC, cAMP Gs Dynamic range kit). The cAMP detection method is based on a competitive immunoassay, in which cAMP produced by the cells and cAMP labeled with the dye d2 compete for binding to a Europium-Cryptate-labeled anti-cAMP antibody. The specific HTRF signal is inversely proportional to the concentration of cAMP.
Compounds were added to individual well in 384 well-assay plates (Greiner #784076) using an Echo (LabCyte) dispenser from 10 mM stocks. Varying concentration of compounds were added to wells, and DMSO was used to normalize each well to a volume of 100 nL. A dose response curve of GLP-1(7-36)NH2 (Bachem H-6795) was included in each run. 5 μL of cAMP concentration response standards are applied in specified wells in the assay plates. Cryo-preserved cells are thawed and resuspended in assay buffer pre-heated to 37° C. (20 mM HEPES pH 7.4, 1× Hank's Balanced Salt Solution (HBSS, Life Technologies #14065) supplemented with 0.1% (w/v) bovine serum albumin (Sigma, A-7030). Cells were centrifuged at 250*g for 5 min at rt, and resuspended in room tempered assay buffer to a final density of 0.16*10^6 cell/mL, to deliver 800 cells/well. 5 μL of assay buffer with 1 mM 3-isobutyl-1-methylxanthin (IBMX; Sigma cat I-7018) was dispensed per well in assay plates using a multidrop combi (Thermo Scientific) subsequently 5 μL of cell suspension was distributed to relevant wells in the assay using a multidrop dispenser. Assay plates were incubated 20 min at rt.
Detection reagents, Europium-Cryptate-labeled anti-cAMP antibody and cAMP labeled with the dye d2, are diluted in lysis buffer, provided by the manufacturer. 5 μL of each detection reagent is supplemented to each assay well using a multidrop dispenser. Assay plates are incubated in the dark for at least one h. The HTRF signal is measured using the HTRF module (excitation: 337 nm, emission A: 665 nm and emission B: 620 nm) in Pherastar FSX (BMG Labtech).
Raw data were converted to pM cAMP using the cAMP standard curve included in each run.
Converted data were further analyzed in Genedata Screener (Genedata) and EC50 determinations were made from agonist dose-response curves analyzed with a curve fitting program using a 4-parameter logistic dose response equation (Equation y=A+((B−A)/1+((C/x)^D))) where A is no stimulation, B is full stimulation, C is the EC50 and D is the Hill slope). The percent effect was determined relative to a saturating concentration of a full GLP-1R agonist (GLP-1(7-36)NH2 has 100% effect in this assay setup).

T1 sequence (P43220 24-463): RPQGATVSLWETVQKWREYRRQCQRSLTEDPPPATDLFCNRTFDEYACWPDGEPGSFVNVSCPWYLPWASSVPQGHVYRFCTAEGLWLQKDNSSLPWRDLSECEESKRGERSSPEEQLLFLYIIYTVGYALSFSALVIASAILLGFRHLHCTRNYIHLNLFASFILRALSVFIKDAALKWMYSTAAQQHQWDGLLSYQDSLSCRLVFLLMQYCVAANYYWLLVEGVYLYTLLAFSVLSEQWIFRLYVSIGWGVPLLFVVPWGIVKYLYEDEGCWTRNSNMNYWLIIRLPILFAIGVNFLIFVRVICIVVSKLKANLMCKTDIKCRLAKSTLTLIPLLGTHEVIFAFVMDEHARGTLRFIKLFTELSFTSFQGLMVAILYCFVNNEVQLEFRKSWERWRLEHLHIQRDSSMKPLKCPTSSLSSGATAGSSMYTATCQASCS
T2 sequence (P43220 24-463 L260F): as the sequence (P43220 24-463) above, with L237F counted along it

EC50 (GLP-1R) [nM]	EC50 (human GLP-1R receptor) [nM]	Compound
16	24	C[C@@]1(c2ccc(Cl)cn2)Oc2cccc([C@H]3[C@@H]4CN(Cc5nc6c(Cl)cc(C(=O)O)cc6n5CC5CCO5)C[C@@H]43)c2O1 (relative stereo) [Example 5, 4-Chloro-2-(((1R,5S,6R)-6-((R*)-2-(5-chloropyridin-2-yl)-2-methylbenzo[d][1,3]dioxol-4-yl)-3-azabicyclo[3.1.0]hexan-3-yl)methyl)-1-(((S)-oxetan-2-yl)methyl)-1H-benzo[d]imidazole-6-carboxylic acid]
58	40	C[C@@]1(c2ccc(Cl)cn2)Oc2cccc([C@H]3[C@@H]4CN(Cc5nc6c(F)cc(C(=O)O)cc6n5C[C@@H]5CCO5)C[C@@H]43)c2O1 (relative stereo) [Example 9, 2-(((1R,5S,6R)-6-((R*)-2-(5-Chloropyridin-2-yl)-2-methylbenzo[d][1,3]dioxol-4-yl)-3-azabicyclo[3.1.0]hexan-3-yl)methyl)-4-fluoro-1-(((S)-oxetan-2-yl)methyl)-1H-benzo[d]imidazole-6-carboxylic acid]
5.9	26	CCn1cncc1Cn1c(CN2C[C@@H]3[C@H](C2)[C@H]3c2cccc3c2O[C@](C)(c2ccc(Cl)cn2)O3)nc2c(F)cc(C(=O)O)cc21 (relative stereo) [Example 14, 2-((1R,5S,6s)-6-(R*)-2-(5-Chloropyridin-2-yl)-2-methylbenzo[d][1,3]dioxol-4-yl)-3-azabicyclo[3.1.0]hexan-3-yl)methyl)-1-((1-ethyl-1H-imidazol-5-yl)methyl)-4-fluoro-1H-benzo[d]imidazole-6-carboxylic acid]
350	280	COc1cc(C(=O)O)cc2c1nc(CN1C[C@@H]3[C@H](C1)[C@H]3c1cccc3c1O[C@](C)(c1ccc(Cl)cn1)O3)n2CC1CCO1 (single isomer, unassigned) [Example 4a, 2-(((1R,5S,6R)-6-((R*)-2-(5-Chloropyridin-2-yl)-2-methylbenzo[d][1,3]dioxol-4-yl)-3-azabicyclo[3.1.0]hexan-3-yl)methyl)-4-methoxy-1-(((S)-oxetan-2-yl)methyl)-1H-benzo[d]imidazole-6-carboxylic acid]
14	61	COc1cc(C(=O)O)cc2c1nc(CN1C[C@@H]3[C@H](C1)[C@H]3c1cccc3c1O[C@](C)(c1ccc(Cl)cn1)O3)n2CC1CCO1 (single isomer, unassigned) [Example 4b, 2-(((1R,5S6R)-6-((R*)-2-(5-Chloropyridin-2-yl)-2-methylbenzo[d][1,3]dioxol-4-yl)-3-azabicyclo[3.1.0]hexan-3-yl)methyl)-4-methoxy-1-(((S)-oxetan-2-yl)methyl)-1H-benzo[d]imidazole-6-carboxylic acid]
57	61	C[C@@]1(c2ccc(C#N)cc2F)Oc2cccc([C@H]3[C@@H]4CN(Cc5nc6c(F)cc(C(=O)O)cc6n5C[C@@H]5CCO5)C[C@@H]43)c2O1 (relative stereo) [Example 11, 2-((1R,5S,6R)-6-((R*)-2-(4-Cyano-2-fluorophenyl)-2-methylbenzo[d][1,3]dioxol-4-yl)-3-azabicyclo[3.1.0]hexan-3-yl)methyl)-4-fluoro-1-(((S)-oxetan-2-yl)methyl)-1H-benzo[d]imidazole-6-carboxylic acid]
7.5	30	CCn1cncc1Cn1c(CN2C[C@@H]3[C@H](C2)[C@H]3c2cccc3c2O[C@](C)(c2ccc(Cl)cn2)O3)nc2c(Cl)cc(C(=O)O)cc21 (single isomer, unassigned) [Example 12, 4-Chloro-2-(((1R,5S,6s)-6-((R*)-2-(5-chloropyridin-2-yl)-2-methylbenzo[d][1,3]dioxol-4-yl)-3-azabicyclo[3.1.0]hexan-3-yl)methyl)-1-((1-ethyl-1H-imidazol-5-yl)methyl)-1H-benzo[d]imidazole-6-carboxylic acid]
3	8.6	CCn1cncc1Cn1c(CN2C[C@@H]3[C@H](C2)[C@H]3c2cccc3c2O[C@](C)(c2ccc(Cl)cc2F)O3)nc2c(F)cc(C(=O)O)cc21 (relative stereo) [Example 15, 2-((1R,5S,6s)-6-((R*)-2-(4-Chloro-2-fluorophenyl)-2-methylbenzo[d][1,3]dioxol-4-yl)-3-azabicyclo[3.1.0]hexan-3-yl)methyl)-1-((1-ethyl-1H-imidazol-5-yl)methyl)-4-fluoro-1H-benzo[d]imidazole-6-carboxylic acid]
150	260	C[C@@]1(c2ccc(Cl)cn2)Oc2cccc([C@H]3[C@@H]4CN(Cc5nc6c(F)cc(C(=O)O)cc6n5CCn5cccn5)C[C@@H]43)c2O1 (single isomer, unassigned) [Example 7, 1-(2-(1H-Pyrazol-1-yl)ethyl)-2-(((1R,5S,6s)-6-((R*)-2-(5-chloropyridin-2-yl)-2-methylbenzo[d][1,3]dioxol-4-yl)-3-azabicyclo[3.1.0]hexan-3-yl)methyl)-4-fluoro-1H-benzo[d]imidazole-6-carboxylic acid]

Compound	EC50 (GLP-1R) [nM]	EC50 (human GLP-1R receptor) [nM]
4-Chloro-2-(((1R,5S,6R)-6-((R*)-2-(5-chloropyridin-2-yl)-5-fluoro-2-methylbenzo[d][1,3]dioxol-4-yl)-3-azabicyclo[3.1.0]hexan-3-yl)methyl)-1-(((S)-oxetan-2-yl)methyl)-1H-benzo[d]imidazole-6-carboxylic acid [Example 8b]	9.6	8.2
2-(((1R,5S,6R)-6-((R*)-2-(5-Chloropyridin-2-yl)-5-fluoro-2-methylbenzo[d][1,3]dioxol-4-yl)-3-azabicyclo[3.1.0]hexan-3-yl)methyl)-4-fluoro-1-(((S)-oxetan-2-yl)methyl)-1H-benzo[d]imidazole-6-carboxylic acid [Example 10b]	1900	680

From patent publication US20250042882A1, “CERTAIN 3-AZABICYCLO[3.1.0]HEXANES AS GLP-1 RECEPTOR MODULATORS” (AstraZeneca AB, priority 2021, published 2025)
